Read-outs that look alike come from different tables or passages of the source.
Experiments:
[1] = system: SJSA1 (human osteosarcoma cells); experiment: MTT antiproliferative assay, SJSA1 cells; format: cell-based; settings: SJSA-1, SJSA1 cells, MTT, 48 h, read-out: IC50 SJSA1
Description: (§3) The cell lines, 97H (human liver cancer cell), Pc9 (human non-small cell lung cancer), HELA (human epithelial cervical cancer cell line), SJSA1 (human osteosarcoma cells), LO2 (human normal liver cells), and HLF (human embryonic lung fibroblast), used in this study were purchased from the Guangzhou ginny ou Biotechnology Co. Ltd. (Guangzhou, China). Cell lines were cultivated in Dulbecco’s Modified Eagle Medium (DMEM) containing 10% (v/v) heat-inactivated fetal bovine serum (FBS), 100 units/mL penicillin, and 100 μg/mL streptomycin.
(§4) For the cytotoxicity assay, the cells grown in the logarithmic phase were seeded into 96-well plates (5 × 10^3 cells/well) for 24 h, and then exposed to different concentrations of the test compounds for 48 h. After the attached cells had been incubated with 5 mg/mL MTT (Sigma, St. Louis, MO, USA) for another 4 h, the suspension was discarded and subsequently the dark blue crystals (formazan) were solubilized in dimethyl sulfoxide (DMSO). Then, the absorbance was measured at 570 nm using a multifunction microplate reader (Molecular Devices, Flex Station 3) (Thermo Fisher Scientific, San Jose, CA, USA), and each experiment was performed at least in triplicate.

[2] = system: HLF (human embryonic lung fibroblast cells); experiment: MTT assay, HLF normal cells; format: cell-based; settings: HLF normal cells, MTT, 48 h, read-out: IC50 HLF
Description: as §3, §4

c-Met enzyme = target: T1, c-Met enzyme (Homo sapiens, UniProt P08581); experiment: Kinase inhibition assay; format: biochemical
T1 construct: purchased Invitrogen
Description: The c-Met enzymes and the Z’-LYTE Kinase Kit were purchased from Invitrogen. The tested compounds were used in concentrations of 0.001 to 10 mM. Briefly, 1 μL of an inhibitor or 5% DMSO, 2 μL of enzyme, and 2 μL of substrate/ATP mix were added to a 384-well low volume plate L and incubated at room temperature for 60 min. Then, 5 μL of ADP-Glo™ Reagent was added, and the mixture was incubated at room temperature for 40 min. Finally, 10 μL of Kinase Detection Reagent was added, and the mixture was incubated at room temperature for 30 min. The plate was measured on a multifunction microplate reader (Molecular Devices, Flex Station 3), and the luminescence was recorded (integration time 0.5–1 s). Curve fitting and data presentations were performed using Graph Pad Prism version 5.0 (GraphPad Inc., La Jolla, CA, USA). Every experiment was repeated at least three times.

[3] = system: Hela (human epithelial cervical cancer cells); experiment: MTT antiproliferative assay, Hela cells; format: cell-based; settings: Hela cells, MTT, 48 h, read-out: IC50 Hela
Description: as §3, §4

[4] = system: hepatic carcinoma 97H cells; experiment: MTT antiproliferative assay, 97H cells; format: cell-based, human; settings: Homo sapiens, 97H cells, MTT, 48 h
Description: as §3, §4

[5] = system: LO2 (human normal liver cells); experiment: MTT assay, LO2 normal cells; format: cell-based; settings: LO2 normal cells, MTT, 48 h, read-out: IC50 LO2
Description: as §3, §4

[6] = system: Pc9 (human non-small cell lung cancer cells); experiment: MTT antiproliferative assay, Pc9 cells; format: cell-based; settings: PC-9, Pc9 cells, MTT, 48 h, read-out: IC50 Pc9
Description: as §3, §4

[7] = system: hepatic carcinoma 97H cells; experiment: Anti-cell-migration study; format: cell-based, human; settings: 36 h
Description: 97H cells were plated in a 6-well culture dish at 5 × 10^4 cells/dish and grown for 24 h, and the non-migrated cells were scraped off the upper surface of the membrane with a 10 μL pipette. The medium was then replaced with 10% serum DMEM medium and treated with compound 31e at the indicated concentrations for another 36 h. After washing with phosphate buffer solution (PBS), the cell images were immediately detected by a Zeiss LSM 570 laser scanning confocal microscope (Carl Zeiss, Jena, Germany).
Figure 4 Effect of 31e on the migration of hepatic carcinoma 97H cells. Hepatic carcinoma 97H cells (50 × 10^4 cells) suspended in free serum Dulbecco’s Modified Eagle Medium (DMEM) containing 31e for 36 h were photographed under a phase contrast microscopy (magnification: 4 × objective). All results were expressed as the mean ± SD of at least three independent experiments.

c-Met phosphorylation = experiment: Western blot, phosphorylation of c-Met in 97H cells; format: cell-based, human
Description: (§1) 97H cells seeded in 60-mm dishes at a density of 5 × 10^5 cells/well were incubated with or without compound 31e at the indicated concentrations for 4 h. After incubation, the cells were washed twice with ice-cold PBS, and then lysed in RIPA lysis buffer (Radio Immunoprecipitation Assay) containing 150 mM NaCl, 50 mM Tris (pH 7.4), 1% (w/v) sodium deoxycholate, 1% (v/v) Triton X-100, 0.1% (w/v) SDS, and 1 mM EDTA (ethylenediaminetetraacetic acid) (Beyotime, Shanghai, China). The lysates were incubated at 0 °C for 30 min, and vortexed every 10 min intermittently, then the total proteins were harvested by centrifuging at 12,500 g for 15 min. The protein concentrations were determined by a BCA (bicinchoninic acid) Protein Assay Kit (Thermo Fisher Scientific, Rockford, IL, USA), and then the protein extracts were reconstituted in loading buffer containing 62 mM Tris-HCl, 2% SDS (sodium dodecyl sulfate), 10% glycerol, and 5% β-mercaptoethanol (Beyotime, Shanghai, China), and boiled at 100 °C for 3 min. An equal amount of the proteins (40 μg) was separated by 8%–12% sodium dodecyl sulphate-polyacrylamide gel electrophoresis (SDS-PAGE) and were transferred to nitrocellulose membranes (Amersham Biosciences, Little Chalfont, Buckinghamshire, UK). After blocking with 5% non-fat dried milk in TBS containing 1% Tween-20 for 90 min at room temperature, the membranes were incubated overnight with specific primary antibodies (Abcam, London, England) at 4 °C. After three washes in TBST, the membranes were incubated with the appropriate HRP-conjugated (Horseradish Peroxidase-conjugated) secondary antibodies at room temperature for 2 h. The blots were developed with enhanced chemiluminescence (Pierce, Rockford, IL, USA) and detected by an LAS4000 imager (GE Healthcare, Waukesha, WI, USA).
(§2) Figure 5 Compound 31e inhibits c-Met phosphorylation and downstream signaling in cancer cell lines. Cells treated with compound 31e for 1 h or 2 h were then lysed and subjected to Western blot analysis.

Akt phosphorylation = experiment: Western blot, phosphorylation of Akt in 97H cells; format: cell-based, human
Description: as §1, §2

[8] = system: hepatic carcinoma 97H cells; experiment: Cell cycle analysis by flow cytometry (PI staining); format: cell-based, human
Description: 97H cells were seeded in 6-well plates (3 × 10^5 cells/well) and incubated in the presence or absence of compound 31e at the indicated concentrations for 24 h. Then, cells were harvested by centrifugation and fixed in 70% ice-cold ethanol overnight. The ethanol was removed the next day, and then the cells were resuspended in the ice-cold PBS and treated with RNAse A (Keygen Biotech, Nanjing, China) at 37 °C for 30 min, followed by incubation with the DNA staining solution propidium iodide (PI) (Keygen Biotech, Nanjing, China) at 4 °C for 30 min. About 10,000 events were detected by flow cytometry (Epics XL, Beckman Coulter, Fullerton, CA, USA) at 488 nm. The data regarding the number of cells in different phases of the cell cycle were analyzed by EXPO32 ADC analysis software (Beckman Coulter, Fullerton, CA, USA).
Figure 3 Effect of 31e on cell cycle progression. (A) 97H cells (3 × 10^5 cells/sample) were treated with increasing concentrations of 31e for 24 h, cells were harvested, fixed with 70% ethanol, and stained with propidium iodide (PI). The cellular DNA content was then determined by flow cytometry analysis. (B) Quantitative analysis of the percentage of cells in each cell cycle phase was analyzed by EXPO32 ADC analysis software.

[9] = same concentration, 2 h versus 1 h

T1 sequence (P08581 25-1390): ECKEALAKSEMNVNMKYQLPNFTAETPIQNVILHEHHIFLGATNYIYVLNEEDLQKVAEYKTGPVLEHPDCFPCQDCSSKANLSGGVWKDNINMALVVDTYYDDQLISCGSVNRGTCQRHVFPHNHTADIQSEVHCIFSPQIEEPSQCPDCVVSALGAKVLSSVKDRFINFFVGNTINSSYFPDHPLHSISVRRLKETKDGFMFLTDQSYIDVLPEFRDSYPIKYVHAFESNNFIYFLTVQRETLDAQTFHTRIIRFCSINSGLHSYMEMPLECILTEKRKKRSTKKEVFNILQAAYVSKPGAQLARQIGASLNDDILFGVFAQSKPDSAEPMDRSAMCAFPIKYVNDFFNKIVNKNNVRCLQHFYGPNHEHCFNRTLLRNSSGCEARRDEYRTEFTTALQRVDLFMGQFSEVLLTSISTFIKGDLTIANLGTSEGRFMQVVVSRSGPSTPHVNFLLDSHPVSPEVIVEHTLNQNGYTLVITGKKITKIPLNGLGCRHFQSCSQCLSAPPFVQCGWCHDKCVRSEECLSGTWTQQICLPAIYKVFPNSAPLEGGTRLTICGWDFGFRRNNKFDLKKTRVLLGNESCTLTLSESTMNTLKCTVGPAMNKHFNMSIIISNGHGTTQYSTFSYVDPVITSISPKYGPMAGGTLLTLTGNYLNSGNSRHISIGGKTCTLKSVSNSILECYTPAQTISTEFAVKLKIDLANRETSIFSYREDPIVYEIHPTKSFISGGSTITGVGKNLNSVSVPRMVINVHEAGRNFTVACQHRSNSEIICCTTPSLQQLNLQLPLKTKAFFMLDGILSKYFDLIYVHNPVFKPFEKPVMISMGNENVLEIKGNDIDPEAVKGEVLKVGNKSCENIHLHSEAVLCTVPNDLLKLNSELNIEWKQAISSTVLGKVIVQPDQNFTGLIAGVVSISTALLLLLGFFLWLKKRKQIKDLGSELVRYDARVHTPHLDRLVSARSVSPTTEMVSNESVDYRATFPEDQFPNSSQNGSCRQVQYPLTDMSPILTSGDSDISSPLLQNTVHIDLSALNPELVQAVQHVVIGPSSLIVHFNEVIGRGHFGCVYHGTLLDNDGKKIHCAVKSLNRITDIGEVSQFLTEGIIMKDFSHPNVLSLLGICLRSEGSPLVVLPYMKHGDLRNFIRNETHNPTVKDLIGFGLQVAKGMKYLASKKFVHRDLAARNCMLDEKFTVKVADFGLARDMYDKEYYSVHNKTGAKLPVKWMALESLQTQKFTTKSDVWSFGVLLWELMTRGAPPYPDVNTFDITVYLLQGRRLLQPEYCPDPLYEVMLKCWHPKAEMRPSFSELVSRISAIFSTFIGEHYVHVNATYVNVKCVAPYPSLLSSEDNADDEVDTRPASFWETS

IC50 [1]: > 50 µM
IC50 (c-Met enzyme): 0.032 ± 0.06 µM
IC50 [3]: > 50 µM
IC50 ([4]; read-out: IC50 of Against 97H cells): 0.026 µM
IC50 ([4]; read-out: IC50 value, 97H cells): 0.026 µM
melting point: 98.2 to 99.9 °C
IC50 [6]: 42.9 ± 0.13 µM
Structure (SMILES): CC(c1cccc(-c2ncc(OCC3CCN(C)CC3)cn2)c1)n1cc(-c2cccc(C#N)c2)cnc1=O (stereo not drawn) [Compound 31e, 5-(3-cyanophenyl)-1-(1-(3-(5-((1-methylpiperidin-4-yl)methoxy)pyrimidin-2-yl)phenyl)ethyl)pyrimidin-2(1H)-one]
IC50 [2]: > 50 µM
IC50 [5]: > 50 µM
inhibition of migration ([7]; 10 nM): moderate inhibition of migration
inhibition of migration ([7]; 50 nM): significantly suppressed
inhibition of migration ([7]; 100 nM): completely suppressed
phosphorylation of c-Met (c-Met phosphorylation; 100 nM, 1 h): completely inhibited
phosphorylation level of c-Met (c-Met phosphorylation; 10 or 50 nM, 1 h): suppressed in a dose-dependent manner
inhibition of c-Met phosphorylation (c-Met phosphorylation; [9]): more obvious
phosphorylation of Akt (Akt phosphorylation; 100 nM, 1 h): completely inhibited
phosphorylation level of Akt (Akt phosphorylation; 10 or 50 nM, 1 h): suppressed in a dose-dependent manner
inhibition of Akt phosphorylation (Akt phosphorylation; [9]): more obvious
population of cells in the G1 phase ([8]; 10 nM, 24 h (vehicle DMSO 70.42%)): 83.84%
population of cells in the G1 phase ([8]; 100 nM, 24 h): 90.88%
population of cells in the G2/M phase ([8]; 100 nM, 24 h): 5.78%
